Measured values reported in US20150216870A1, “Combination of PI3K Inhibitor and C-Met Inhibitor” (Novartis AG, priority 2012, published 2015).

Legend:
H4 = test: CellTiter-Glo cell viability dose matrix in H4 glioblastoma cells; type: cell-based, human; conditions: H4 (PTEN mutant, HGF expressing)
Procedure: (§1) The PI3K inhibitor COMPOUND C and the c-MET receptor tyrosine kinase inhibitor 2-fluoro-N-methyl-4-[7-quinolin-6-yl-methyl)-imidazo[1,2-b][1,2,4]triazin-2yl]benzamide are evaluated in combination in glioblastoma tumor models. COMPOUND C (10 mM) and 2-fluoro-N-methyl-4-[7-quinolin-6-yl-methyl)-imidazo[1,2-b][1,2,4]triazin-2yl]benzamide (10 mM) are dissolved in DMSO, and are stored in aliquots at −20° C.
(§2) Human Glioblastoma cell lines, U-87 MG (PTEN mutant and HGF expressing line), H4 (PTEN mutant and HGF expressing line), A172 (PTEN mutant line with low HGF expression level) and LN-229 (PTEN wildtype and HGF low) are purchased from American Type Cell Collection and are maintained in a humidified incubator at 37° C. in 5% CO2 in recommended media. All four cell lines express detected MET at the mRNA level.
(§3) The cells are passaged twice a week and the medium is changed every 2 to 3 days. […]
(§4) Cell viability is determined by measuring cellular ATP content using the CellTiter-Glo® (CTG) luminescent cell viability assay (Promega). […] An equal volume of the CTG reagents is added to each well at the end of the compound treatment and luminescence is recorded on an Envision plate reader (Perkin Elmer). Reduced and enhanced luminescent signal values (responses) are calculated relative to untreated (control) cells. […]

[1] = Toxicity (body weight, deaths) in NCI-H1993 xenograft study; type: in vivo; conditions: c-Met inhibitor 17.7 mg/kg p.o. b.i.d. to end
Procedure: Animals are weighed on Days 1-5, on each treatment day (except weekends), and twice weekly thereafter, until the end of the study. The maximum group mean body weight (BW) loss is determined for the interval between D1 and D20 as well as for the entire study. Group mean BW nadir determinations exclude measurements taken after more than 50% of the assessable mice in the group have exited the study, and also exclude any animal that was classified as a non-treatment related (NTR) death during the study. Acceptable toxicity for the maximum tolerated dose (MTD) is defined as a group mean BW loss of less than 15% during the test, and not more than one TR death among ten animals. Any animal with BW losses exceeding 15% for three consecutive measurements, or with a BW loss exceeding 20% for one measurement, are euthanized, and classified as a TR death unless it was the first death in the group. A death is classified as NTR if there was no evidence that the death is related to treatment side effects and the death occurs more than 14 days after dosing ended. NTR deaths are categorized as NTRa (due to accident or error), NTRu (due to unknown causes), or NTRm (necropsy-confirmed tumor dissemination by invasion and/or metastasis). To conserve animals while providing maximum information, the first death in a group was classified as NTRu; such an NTR death was to be reclassified as TR if two subsequent TR deaths are recorded in the same group.

A172 = test: CellTiter-Glo cell viability dose matrix in A172 glioblastoma cells; type: cell-based, human; conditions: A172 (PTEN mutant, low HGF)
Procedure: as §1, §2, §3, §4

CNC(=O)c1ccc(-c2cnc3ncc(Cc4ccc5ncccc5c4)n3n2)cc1F [c-Met inhibitor]
anti-proliferative activity (single agent) (H4): only moderate activities | Deaths: NTR [1]: (1 NTR) | deaths due to individual body weight losses [1]: One | anti-proliferative activity (single agent) (A172): completely inactive
